The values that follow come from US12390435B2, “Electrophiles and electrophile pro-drugs as RAD51 inhibitors” (University of Pittsburgh—Of the Commonwealth System of …, priority 2018, dated 2025).

Common to all, as to type: cell-based
Experiment [1] has as its system MDA-MB-231 and MDA-MB-468 cells. The experiment is described as follows: GSH and GSSG LC-MS/MS. The note with it: 5 μM, 0 to 12 hr. As to the method: (§1) MCF-10A, MDA-MB-231, and MDA-MB-468 cells were seeded in 24-well plates at a density of 3×10^5 cells/well. […] At each time point, cell media was aspirated and washed 2 times with sterile PBS. Cells were then incubated with PBS containing 25 mM N-ethylmaleimide (NEM) for 15 min at 37° C. Derivatizing solution (50 μL of 15% MeOH, 40 mM HEPES, 50 mM NaCl, 1 mM EDTA, 2 μM [^13C2^15N]-GSH, 2 μM [^13C4^15N2]-GSSG, and 25 mM NEM) was added to each well and incubated for 15 min at room temperature. Next, 50 μL, of 10% (w/v) sulfosalicylic acid solution was immediately added to each well to stabilize GSH and GSSG. Supernatant was collected by centrifugation at 15,000 RPM for 10 min at 4° C. Samples were diluted 1:5 in 5% sulfosalicylic acid and 20 μL, was injected for HPLC-MS/MS analysis. Cell numbers at time 0 hr were quantitated by Hoechst 33258 DNA stain assay and used to normalized GSH or GSSG levels expressed as nmol/cells (×10^6).
(§2) Samples were applied to the column at 30% B and eluted with a linear increase in solvent B (30-100% in 9.7 min). The column was washed at 100% B for 3 min before returning to initial conditions for equilibration (2 min). […] Sample [GSH] and [GSSG] were determined from analyte:I.S. area ratios, and intracellular GSH and GSSG were normalized to cell number (10^6), with results expressed as nmol GSH or GSSG per 10^6 cells.

In another experiment the test system is MCF-10A cells. The experiment is described as follows: GSH and GSSG LC-MS/MS. The note with it: 5 μM, 0 to 12 hr. As to the method:
as §1, §2

For another experiment, the system named is RelA in MCF-10A cells. The experiment is described as follows: RelA protein level. The note with it: 5 μM, 24 hr. As to the method:
Western blotting was performed. 20-60 μg of total lysates per lane were loaded on 7%, 10%, or 12% SDS-PAGE and transferred onto nitrocellulose or polyvinylidene difluoride membranes (Bio-Rad). The membranes were probed with primary antibodies against caspase-3, multi-drug resistance protein-1 (MRP1), poly [ADP ribose] polymerase-1 (PARP-1), ubiquitin, RelA; cyclin D1, p21, caspase-9, MRP4, IKKβ, pIKKβ, IκBα, or pIκBα (Cell Signaling); caspase-8 (R&D Systems). Samples were normalized to β-actin (Sigma-Aldrich) or GAPDH (Trevigen).

For the compound `CCCCCCCCC(=CCCCCCCCC(=O)O)[N+](=O)[O-]` [NO2-OA, 10-nitro-octadec-9-enoic acid], the “GSH:GSSG ratio after treatment” value in experiment [1] is “rapidly decreased”; in the experiment with MCF-10A cells, “maintained the GSH:GSSG ratio over the first 6 hr”. Further, in the experiment with RelA in MCF-10A cells, the RelA protein levels result was “not altered”.
